Biological target: CHRM3 (Homo sapiens, UniProt P20309)
Experiment: yeast-expressed receptor NanoLuc screen at […], |Z-score| […]
Type: cell-based

Sequence of CHRM3 (P20309 whole entry): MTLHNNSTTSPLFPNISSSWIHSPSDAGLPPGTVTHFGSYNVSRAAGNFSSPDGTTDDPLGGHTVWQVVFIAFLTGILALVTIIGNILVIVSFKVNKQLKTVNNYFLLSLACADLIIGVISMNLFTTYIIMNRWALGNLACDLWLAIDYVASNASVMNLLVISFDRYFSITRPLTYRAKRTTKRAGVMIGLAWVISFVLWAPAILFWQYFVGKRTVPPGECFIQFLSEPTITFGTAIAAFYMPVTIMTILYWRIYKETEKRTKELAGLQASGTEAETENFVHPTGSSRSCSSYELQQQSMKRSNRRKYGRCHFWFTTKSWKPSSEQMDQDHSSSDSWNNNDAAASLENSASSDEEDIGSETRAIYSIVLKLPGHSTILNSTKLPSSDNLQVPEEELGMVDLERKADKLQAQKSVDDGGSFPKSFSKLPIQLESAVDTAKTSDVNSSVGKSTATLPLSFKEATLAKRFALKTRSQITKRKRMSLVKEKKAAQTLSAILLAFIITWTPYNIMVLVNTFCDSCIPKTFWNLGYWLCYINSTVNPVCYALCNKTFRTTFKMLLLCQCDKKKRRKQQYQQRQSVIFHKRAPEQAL

CC(C)OC(=O)CCC/C=C\C[C@@H]1[C@@H](CC[C@@H](O)CCc2ccccc2)[C@H](O)C[C@@H]1O [Latanoprost]
yeast-expressed receptor NanoLuc screen at 10 uM, |Z-score| > 3: Latanoprost for mitigating increased intraoccular pressure may be partially explained by the observed interaction with CHRM3

From paper PMC12048553, “Labels as a feature: Network homophily for systematically annotating human GPCR drug-target interactions” (Nature Communications, 2025)
